In brackets after ≈: the same amount, converted by molar mass. Several values for one entry are separate records, joined by “and”; a condition that tells them apart may be missing. Equal entries are not always repeated. Where two headings read alike, the source gives them in different places.
Tests used:
[1] = test system: renal tissue of Mus musculus mice; assay: Oxidative stress and kidney toxicity markers in renal tissue after repeated antibiotic administration to mice; format: in vivo
A. baumannii (1425 MTCC) = assay: Zone of inhibition; format: cell-based; set-up: unit not given beside the values
From the text: (§1) Where X and Y are respective additive agents mixed in the formulation with water for injection.

[2] = test system: P. aeruginosa (1688 MTCC); assay: Zone of inhibition; format: cell-based; set-up: unit not given beside the values
From the text: as §1

[3] = test system: K. pneumoniae (10031 ATCC); assay: Zone of inhibition; format: cell-based; set-up: unit not given beside the values
From the text: as §1

P. vulgaris (426 MTCC) = assay: Zone of inhibition; format: cell-based; set-up: unit not given here
From the text: as §1

E. coli (1687 MTCC) = assay: Zone of inhibition; format: cell-based; set-up: unit not given here
From the text: as §1

C. braakii (2690 MTCC) = assay: Zone of inhibition; format: cell-based; set-up: unit not given here
From the text: as §1

S. aureus (737 MTCC) = assay: Zone of inhibition; format: cell-based; set-up: unit not given here
From the text: as §1

P. aeruginosa MTCC 1688 = assay: In-vitro microbial efficacy (MIC); format: cell-based
E. cloacae MTCC 509 = assay: In-vitro microbial efficacy (MIC); format: cell-based
B. subtilis MTCC 736 = assay: In-vitro microbial efficacy (MIC); format: cell-based
P. vulgaris MTCC 426 = assay: In-vitro microbial efficacy (MIC); format: cell-based
C. braakii MTCC 2690 = assay: In-vitro microbial efficacy (MIC); format: cell-based
A. baumanii MTCC 1425 = assay: In-vitro microbial efficacy (MIC); format: cell-based
M. smegmatis MTCC 995 = assay: In-vitro microbial efficacy (MIC); format: cell-based
E. coli MTCC 1687 = assay: In-vitro microbial efficacy (MIC); format: cell-based
S. aureus MTCC 737 = assay: In-vitro microbial efficacy (MIC); format: cell-based
N. mucosa MTCC 1722 = assay: In-vitro microbial efficacy (MIC); format: cell-based
[4] = test system: K. pneumoniae 10031(ATCC); assay: In-vitro microbial efficacy (MIC); format: cell-based
MRSA = assay: In-vitro microbial efficacy (MIC); format: cell-based

Structure (SMILES): NCC[C@H](O)C(=O)N[C@@H]1C[C@H](N)[C@@H](O[C@H]2O[C@H](CN)[C@@H](O)[C@H](O)[C@H]2O)[C@H](O)[C@H]1O[C@H]1O[C@H](CO)[C@@H](O)[C@H](N)[C@H]1O [Amikacin]
- Catalase activity in renal tissue ([1]; mouse, in vivo): decrease
- Glutathione reductase activity in renal tissue ([1]; mouse, in vivo): decrease
- MDA activity in renal tissue ([1]; mouse, in vivo): increase
- SOD activity in renal tissue ([1]; mouse, in vivo): decrease

Structure (SMILES): C[C@@H](O)[C@H]1C(=O)N2C(C(=O)O)=C(S[C@@H]3CN[C@H](C(=O)Nc4cccc(C(=O)O)c4)C3)[C@H](C)[C@H]12 [Ertapenem]
- Zone of Inhibition (A. baumannii (1425 MTCC); drug concentration 0.005 mcg): Nil
- Zone of Inhibition (A. baumannii (1425 MTCC); drug concentration 0.05 mcg): 13.37
- Zone of Inhibition (A. baumannii (1425 MTCC); drug concentration 0.5 mcg): 18.25
- Zone of Inhibition ([2]; drug concentration 0.005 mcg): Nil
- Zone of Inhibition ([2]; drug concentration 0.05 mcg): Nil
- Zone of Inhibition ([2]; drug concentration 0.5 mcg): Nil
- Zone of Inhibition ([3]; drug concentration 0.005 mcg): Nil
- Zone of Inhibition ([3]; drug concentration 0.05 mcg): Nil
- Zone of Inhibition ([3]; drug concentration 0.5 mcg): 15.90
- Zone of Inhibition (P. vulgaris (426 MTCC); drug concentration 0.005 mcg): 9.54
- Zone of Inhibition (P. vulgaris (426 MTCC); drug concentration 0.05 mcg): 16.74
- Zone of Inhibition (P. vulgaris (426 MTCC); drug concentration 0.5 mcg): 18.50
- Zone of Inhibition (E. coli (1687 MTCC); drug concentration 0.005 mcg): 10.10
- Zone of Inhibition (E. coli (1687 MTCC); drug concentration 0.05 mcg): 15.49
- Zone of Inhibition (E. coli (1687 MTCC); drug concentration 0.5 mcg): 21.45
- Zone of Inhibition (E. coli (1687 MTCC); drug concentration 1.0 mcg): 23.39
- Zone of Inhibition (C. braakii (2690 MTCC); drug concentration 0.005 mcg): 10.52
- Zone of Inhibition (C. braakii (2690 MTCC); drug concentration 0.05 mcg): 18.95
- Zone of Inhibition (C. braakii (2690 MTCC); drug concentration 0.5 mcg): 27.88
- Zone of Inhibition (S. aureus (737 MTCC); drug concentration 0.005 mcg): 9.44
- Zone of Inhibition (S. aureus (737 MTCC); drug concentration 0.05 mcg): 14.55
- Zone of Inhibition (S. aureus (737 MTCC); drug concentration 0.5 mcg): 21.33

Structure (SMILES): CCN[C@@H]1C[C@H](N)[C@@H](O[C@H]2O[C@H](CN)CC[C@H]2N)[C@H](O)[C@H]1O[C@H]1OC[C@](C)(O)[C@H](NC)[C@H]1O [Etimicin]
- MIC (P. aeruginosa MTCC 1688): 8 µg/mL (≈ 16.8 µM)
- MIC (E. cloacae MTCC 509): 2 µg/mL (≈ 4.19 µM)
- MIC (B. subtilis MTCC 736): 8 µg/mL (≈ 16.8 µM)
- MIC (P. vulgaris MTCC 426): 4 µg/mL (≈ 8.38 µM)
- MIC (C. braakii MTCC 2690): 2 µg/mL (≈ 4.19 µM)
- MIC (A. baumanii MTCC 1425): 2 µg/mL (≈ 4.19 µM)
- Zone of Inhibition (A. baumannii (1425 MTCC); drug concentration 0.005 mcg): Nil
- Zone of Inhibition (A. baumannii (1425 MTCC); drug concentration 0.5 mcg): 13.5 and 12.88
- Zone of Inhibition ([2]; drug concentration 0.005 mcg): Nil
- Zone of Inhibition ([2]; drug concentration 0.05 mcg): Nil
- Zone of Inhibition ([2]; drug concentration 0.5 mcg): 12.49 and 12.60
- Zone of Inhibition ([3]; drug concentration 0.005 mcg): nil and Nil
- Zone of Inhibition ([3]; drug concentration 0.05 mcg): nil and Nil
- Zone of Inhibition ([3]; drug concentration 0.5 mcg): 16.64 and 16.50
- MIC (M. smegmatis MTCC 995): 2 µg/mL (≈ 4.19 µM)
- MIC (E. coli MTCC 1687): 0.125 µg/mL (≈ 0.262 µM)
- MIC (S. aureus MTCC 737): 8 µg/mL (≈ 16.8 µM)
- Creatnine level in renal tissue ([1]; Mus musculus mice, repeated administration for 7 days consecutively (FIG. 5)): significantly decreased
- SOD activity in renal tissue ([1]; mice, after administration of antibiotic (FIG. 1)): decrease
- Catalase activity in renal tissue ([1]; mice, after administration of antibiotic (FIG. 2)): decrease
- MDA activity in renal tissue ([1]; mice, after administration of antibiotic (FIG. 3)): increase
- Glutathione reductase activity in renal tissue ([1]; mice, after administration of antibiotic (FIG. 4)): decrease
- Zone of Inhibition (P. vulgaris (426 MTCC); drug concentration 0.005 mcg): Nil
- Zone of Inhibition (P. vulgaris (426 MTCC); drug concentration 0.05 mcg): Nil
- Zone of Inhibition (P. vulgaris (426 MTCC); drug concentration 0.5 mcg): 15.19 and 13.97
- Zone of Inhibition (E. coli (1687 MTCC); drug concentration 0.005 mcg): Nil
- Zone of Inhibition (E. coli (1687 MTCC); drug concentration 0.05 mcg): 9.42 and 9.31
- Zone of Inhibition (E. coli (1687 MTCC); drug concentration 0.5 mcg): 16.50 and 15.70
- Zone of Inhibition (E. coli (1687 MTCC); drug concentration 1.0 mcg): 17.57
- Zone of Inhibition (C. braakii (2690 MTCC); drug concentration 0.005 mcg): Nil
- Zone of Inhibition (C. braakii (2690 MTCC); drug concentration 0.05 mcg): Nil
- Zone of Inhibition (C. braakii (2690 MTCC); drug concentration 0.5 mcg): 18.70 and 19.10
- Zone of Inhibition (S. aureus (737 MTCC); drug concentration 0.005 mcg): Nil
- Zone of Inhibition (S. aureus (737 MTCC); drug concentration 0.05 mcg): 11.15 and 10.12
- Zone of Inhibition (S. aureus (737 MTCC); drug concentration 0.5 mcg): 17.50 and 16.65
- MIC (N. mucosa MTCC 1722): 1 µg/mL (≈ 2.09 µM)
- MIC [4]: 8 µg/mL (≈ 16.8 µM)
- MIC (MRSA): 4 µg/mL (≈ 8.38 µM)

Structure (SMILES): C[C@@H](O)[C@H]1C(=O)N2C(C(=O)O)=C(S[C@@H]3CN[C@H](C(=O)N(C)C)C3)[C@H](C)[C@H]12 [Meropenem]
- MIC (P. aeruginosa MTCC 1688; Pseudomonas aeruginosa, MTCC1688, read-out: MIC): 2 µg/mL (≈ 5.22 µM)
- MIC (E. cloacae MTCC 509; Enterobacter cloacae, MTCC509, read-out: MIC): 0.125 µg/mL (≈ 0.326 µM)
- MIC (B. subtilis MTCC 736; Bacillus subtilis, MTCC736, read-out: MIC): 2 µg/mL (≈ 5.22 µM)
- MIC (P. vulgaris MTCC 426; Proteus vulgaris, MTCC426, read-out: MIC): 0.0625 µg/mL (≈ 0.163 µM)
- MIC (C. braakii MTCC 2690; Citrobacter braakii, MTCC2690, read-out: MIC): 0.25 µg/mL (≈ 0.652 µM)
- MIC (A. baumanii MTCC 1425; Acinetobacter baumannii, MTCC1425, read-out: MIC): 0.125 µg/mL (≈ 0.326 µM)
- Zone of Inhibition (A. baumannii (1425 MTCC); drug concentration 0.005 mcg): Nil
- Zone of Inhibition (A. baumannii (1425 MTCC); drug concentration 0.05 mcg): 14.50
- Zone of Inhibition (A. baumannii (1425 MTCC); drug concentration 0.5 mcg): 19.81
- Zone of Inhibition ([2]; drug concentration 0.005 mcg): Nil
- Zone of Inhibition ([2]; drug concentration 0.05 mcg): 13.64
- Zone of Inhibition ([2]; drug concentration 0.5 mcg): 21.85
- Zone of Inhibition ([3]; drug concentration 0.005 mcg): Nil
- Zone of Inhibition ([3]; drug concentration 0.05 mcg): 14.36
- Zone of Inhibition ([3]; drug concentration 0.5 mcg): 23.87
- MIC (M. smegmatis MTCC 995; Mycolicibacterium smegmatis, MTCC995, read-out: MIC): 0.25 µg/mL (≈ 0.652 µM)
- MIC (E. coli MTCC 1687; Escherichia coli, MTCC1687, read-out: MIC): 0.0625 µg/mL (≈ 0.163 µM)
- MIC (S. aureus MTCC 737; Staphylococcus aureus, MTCC737, read-out: MIC): 0.5 µg/mL (≈ 1.3 µM)
- Catalase activity in renal tissue ([1]; mouse, in vivo): decrease
- Glutathione reductase activity in renal tissue ([1]; mouse, in vivo): decrease
- MDA activity in renal tissue ([1]; mouse, in vivo): increase
- SOD activity in renal tissue ([1]; mouse, in vivo): decrease
- Zone of Inhibition (P. vulgaris (426 MTCC); drug concentration 0.005 mcg): 10.84
- Zone of Inhibition (P. vulgaris (426 MTCC); drug concentration 0.05 mcg): 18.01
- Zone of Inhibition (P. vulgaris (426 MTCC); drug concentration 0.5 mcg): 21.32
- Zone of Inhibition (E. coli (1687 MTCC); drug concentration 0.005 mcg): 8.88
- Zone of Inhibition (E. coli (1687 MTCC); drug concentration 0.05 mcg): 15.70
- Zone of Inhibition (E. coli (1687 MTCC); drug concentration 0.5 mcg): 22.97
- Zone of Inhibition (C. braakii (2690 MTCC); drug concentration 0.005 mcg): 9.35
- Zone of Inhibition (C. braakii (2690 MTCC); drug concentration 0.05 mcg): 23.35
- Zone of Inhibition (C. braakii (2690 MTCC); drug concentration 0.5 mcg): 28.60
- Zone of Inhibition (S. aureus (737 MTCC); drug concentration 0.005 mcg): 11.45
- Zone of Inhibition (S. aureus (737 MTCC); drug concentration 0.05 mcg): 16.29
- Zone of Inhibition (S. aureus (737 MTCC); drug concentration 0.5 mcg): 22.76
- MIC (N. mucosa MTCC 1722; read-out: MIC): 0.125 µg/mL (≈ 0.326 µM)
- MIC ([4]; Klebsiella pneumoniae, read-out: MIC): 1 µg/mL (≈ 2.61 µM)
- MIC (MRSA; Staphylococcus aureus, read-out: MIC): 0.5 µg/mL (≈ 1.3 µM)

Structure (SMILES): NC[C@H]1O[C@H](O[C@H]2[C@H](O)[C@@H](O[C@H]3O[C@H](CO)[C@@H](O)[C@H](N)[C@H]3O)[C@H](N)C[C@@H]2N)[C@H](N)C[C@@H]1O [Tobramycin]
- Catalase activity in renal tissue ([1]; mouse, in vivo): decrease
- Glutathione reductase activity in renal tissue ([1]; mouse, in vivo): decrease
- MDA activity in renal tissue ([1]; mouse, in vivo): increase
- SOD activity in renal tissue ([1]; mouse, in vivo): decrease
